B1: GintAMT3 (Rhizophagus irregularis) (protein)
chain: MSETSQPSQFKEGDIAWMLTSTAFVWLMIPGVGYFYSGMARSKNALSLILFCFLCVPVVAMQWFIWGYSLSFSRTGGLFIGNLRNAFFMNVRGEPTLKAESLPEIVHAIYQGMFAAITPSLAIGAAAERARMLPLLVFIFVWSTLVYDVIACWIWSANGWFKTIEGLDFAGGTPVHIASGAAALAYCVVLGKRHGHGRDEFKPHNNVNVILGTVFLWFGWFGFNGGSAFGANTRAAMAIMVTNTAASFGGLAWMLMDYRLERKFSALGFCSGAVAGLVCITPASGYVSPPVSVLFGITGGIACNLAVKLKHILDFDDALDVFAVHAVGGVAGNTLLGIFADKEMAALNGEIIHGGAIDGHSVQLGYQIASSIAGLTYSFCISALILYVMDRIPCLKLRMEPDEEEIGTDETELGEPAYYFLDRVVASIQVQIASKTMSSPQQTQLQSIDHIHYS

How the values were obtained:
GintAMT1 = target: T1, GintAMT1 (Rhizophagus intraradices, UniProt A2Q6J0); details: starting ammonium printed as 1 mM and 2 mM (Figure 5 legend)
T1 construct: gene AMT1

GintAMT2 = target: T2, GintAMT2 (Rhizophagus intraradices, UniProt F8K9Q4); details: starting ammonium printed as 1 mM and 2 mM (Figure 5 legend)
T2 construct: gene amt2

[1] = substrate: CN; assay: cells, lysate or membranes; assay type: cell-based, Rhizophagus irregularis; details: pH 5, 50 mM KH2PO4, 20 mM glucose, 30 °C, labelled compound, 0-15 mM substrate, Hanes-Woolf plot

T2 sequence (F8K9Q4 1-470): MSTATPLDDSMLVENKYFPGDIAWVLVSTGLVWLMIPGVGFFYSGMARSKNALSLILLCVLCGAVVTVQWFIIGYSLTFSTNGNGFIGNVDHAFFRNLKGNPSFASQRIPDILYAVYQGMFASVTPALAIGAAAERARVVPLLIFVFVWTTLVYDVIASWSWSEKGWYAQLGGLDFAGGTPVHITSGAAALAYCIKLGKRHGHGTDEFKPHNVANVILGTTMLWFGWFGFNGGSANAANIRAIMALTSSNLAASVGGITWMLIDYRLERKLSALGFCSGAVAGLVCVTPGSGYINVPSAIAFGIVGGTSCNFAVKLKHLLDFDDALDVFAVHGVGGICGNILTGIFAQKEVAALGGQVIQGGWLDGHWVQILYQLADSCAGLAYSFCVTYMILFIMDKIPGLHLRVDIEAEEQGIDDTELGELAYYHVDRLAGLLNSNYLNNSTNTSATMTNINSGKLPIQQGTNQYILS
T1 sequence (A2Q6J0 1-479): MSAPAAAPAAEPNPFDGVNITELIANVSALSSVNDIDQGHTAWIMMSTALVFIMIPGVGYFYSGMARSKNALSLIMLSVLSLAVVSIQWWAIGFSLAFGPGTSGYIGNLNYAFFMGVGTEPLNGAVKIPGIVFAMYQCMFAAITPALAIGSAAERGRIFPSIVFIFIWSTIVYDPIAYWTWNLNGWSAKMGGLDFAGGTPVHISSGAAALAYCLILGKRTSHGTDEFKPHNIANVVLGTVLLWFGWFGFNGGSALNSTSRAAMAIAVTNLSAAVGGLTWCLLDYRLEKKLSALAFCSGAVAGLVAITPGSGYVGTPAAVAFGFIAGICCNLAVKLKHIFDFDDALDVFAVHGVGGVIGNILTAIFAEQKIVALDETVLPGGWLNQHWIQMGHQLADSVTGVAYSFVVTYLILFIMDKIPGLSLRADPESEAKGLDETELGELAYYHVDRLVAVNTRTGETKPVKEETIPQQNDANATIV

Molecule	ammonium removal from medium by yeast (GintAMT1)	ammonium removal from medium by yeast (GintAMT2)	Km [1] [µM]
N [ammonium]	Yeast cells expressing ScMEP1 and GintAMT1 took up ammonium quite rapidly.	GintAMT2 and GintAMT3 expressing cells imported ammonium at a slower rate	
B1			1800
